Laboratory results reported in PubChem BioAssay AID463074 (Broad Institute, 2010).
Activity calls are given as the source filed them.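 How the source made its calls: active means AC50 no more than tenfold above the top dose tested, or full inhibition at every dose with a flat fit (cut at about 19 µM in these data); inconclusive means flat curve fit with inhibition between 30% and 70%, or poor fit; inactive means AC50 more than tenfold above the top dose tested.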

Test system: HMLE_sh_eGFP viability, CellTiter-Glo luminescence, 72 h
Experiment: cytotoxicity in HMLE control line with eGFP shRNA, dose response, counter-screen for HMLE_sh_ECad selective toxicity project, cell-based, HMLE_sh_eGFP, luminescence (AID 463074);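 further: counterscreen control line to flag general toxicity for the HMLE_sh_ECad screen; potency for loss of viability as luminescence drops below DMSO wells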

| SMILES | AC50 |
| --- | --- |
| Cc1ccc2sc(N(CCCN(C)C)C(=O)c3ccc(S(=O)(=O)N(C)C4CCCCC4)cc3)nc2c1C | 3.63 µM |
| CC(C)c1ccccc1OCC(O)CN(CC(O)COc1cccc2ccccc12)C(C)C (stereo unspecified) | 3.47 µM |
| Nc1ccccc1N=Cc1ccc(-c2cccc(Cl)c2)o1 | 4.22 µM |
| O=C(c1ccco1)c1nnn(Cc2ccccc2)c1-c1ccccc1 | 6.47 µM |
| O=C(Nc1ccc(N2CCN(C(=O)c3cccs3)CC2)cc1)c1ccc([N+](=O)[O-])o1 | 1.87 µM |
| O=C(NNc1ccc(-c2csnn2)cc1)c1cc(Cl)cc(Cl)c1 | 3.02 µM |
| COc1ccc(OC)c(-c2csc(NC(=O)c3ccc(F)cc3)n2)c1 | 6.89 µM |
| O=C(Nc1cccc(C(F)(F)F)c1)Nc1ccc(N2CCCC2)c(S(=O)(=O)Nc2ccccc2Cl)c1 | 1.33 µM |
| O=C(Nc1ccc(N2CCN(Cc3ccccc3F)CC2)cc1)c1ccc([N+](=O)[O-])o1 | 1.94 µM |
| N#Cc1ccc(Nc2nc(-c3ccc(O)cc3O)cs2)cc1C(F)(F)F | 3.87 µM |
| Cc1cc(Br)c(OCc2ccc(C(=O)N/N=C/c3ccc[nH]3)cc2)c(Br)c1 | 1.32 µM |
| COc1ccc(-c2sc3ccc(N4CCOCC4)cc3c2C#CC2(O)CCCCC2)cc1 | 2.94 µM |
| C=CCc1cccc(/C=N/NC(=O)c2ccc3nc[nH]c3c2)c1O | 6.2 µM |
| CCCCCCSc1ccc([C@H]2N[C@@](C)(C(=O)OC)[C@H]3C(=O)N(CC)C(=O)[C@@H]23)cc1 | 19.8 µM |
| CCOC(=O)C1=C(CSc2nc3ccccc3s2)NC(=O)NC1c1ccc(OC)cc1 (stereo unspecified) | 10.8 µM |
| CC(=O)OCCCNc1cc(Sc2ccc(Cl)cc2)c2nonc2c1[N+](=O)[O-] | 4.28 µM |
| CCCCc1ccc(N=N/C(C(=O)Nc2ccc(NC(C)=O)cc2OC)=C(/C)O)cc1 | 17.7 µM |
| Cc1ccc2nc(Cl)c3cc(C(=O)N(CCN(C)C)Cc4ccco4)sc3c2c1 | 3.53 µM |
| CC(NS(=O)(=O)OCC(Cl)(Cl)Cl)c1ccc(C(C)(C)C)cc1 (stereo unspecified) | 3.57 µM |
| O=C(COCc1cc(-c2ccc3c(c2)OCO3)on1)N1CCN(c2cccc(C(F)(F)F)c2)CC1 | 2.69 µM |
| CC(C)C(=O)NC(c1ccccc1)c1cc([N+](=O)[O-])c2cccnc2c1O (stereo unspecified) | 5.91 µM |
| CC(C)(C)c1ccc(/C=C/C(=O)c2ccc(NC3=NCCCS3)cc2)cc1 | 6.11 µM |
| COc1cc(C[C@H](C)[C@H](C)Cc2ccc3c(c2)OCO3)ccc1O | 6.66 µM |
| CC(CNC(=S)Nc1cc(F)cc(F)c1)CSc1ccc(Cl)cc1 (stereo unspecified) | 6.55 µM |
| CCOC(=O)c1c(C)nc2c(c1-c1ccc(Cl)cc1)C(=O)CC(C)(C)C2 | 18.1 µM |
| CC(C)C[C@H]1CN=C(Nc2ccccc2)N1CC1CCC(C(C)(C)C)CC1 (stereo partly specified) | 5.34 µM |

| SMILES | AC50 |
| --- | --- |
| O=c1c2ccccc2nc(/C=C/c2ccc(Br)cc2)n1CCO | 16.6 µM |
| COC(=O)Nc1ccc(S(=O)(=O)N2CCCc3ccccc32)cc1 | 2.21 µM |
| CC(C)(C)c1ccc(Cn2nnc3c(=O)[nH]c(C4CCCN(C(=O)c5cccs5)C4)nc32)cc1 (stereo unspecified) | 14.6 µM |
| C/C(N=Nc1nc2ccccc2s1)=N\Nc1ccccc1O | 6.1 µM |
| CSc1c(SCc2ccccc2)cnn(-c2ccccc2)c1=O | 5.71 µM |
| C[C@@H]1CN([C@@H](C)CO)C(=O)Cc2cc(NC(=O)Nc3ccc(C(F)(F)F)cc3)ccc2O[C@@H]1CN(C)S(=O)(=O)c1ccc(Cl)cc1 | 1.78 µM |
| Cc1cc(Nc2nc(Cl)c(Cl)cc2Cl)n(-c2ccccc2)n1 | 11.3 µM |
| COc1ccc(C=C2C=C(C(C)(C)C)C(=O)C(C(C)(C)C)=C2)cc1OC | 3.47 µM |
| C=C(C)CNC(=S)NNC(=O)CCn1c2ccc(Cl)cc2c2cc(Cl)ccc21 | 1.8 µM |
| CCCCCCSc1ccc(-c2nc3ccccn3c2NCCCC)cc1 | 6.98 µM |
| CCCC/C(C)=C/[C@@H](NP(=O)(c1ccccc1)c1ccccc1)c1ccccc1 | 6.68 µM |
| CCOc1ccc(/C=N/NC(=O)COc2ccccc2-c2ccccc2)cc1 | 6.53 µM |
| COc1ccc(-c2sc3ccccc3c2-c2ccc(OCCN3CCCCC3)cc2)cc1 | 1.4 µM |
| c1ccc(C[C@H]2CNCCN2CCCCC2CCCCC2)cc1 | 6.83 µM |
| Cc1cc(NCCCn2ccnc2)n2nc(C)c(-c3ccc(Cl)cc3)c2n1 | 6.46 µM |
| Cc1ccc(NS(=O)(=O)c2ccc(Cl)c(C(=O)Nc3ccccc3-c3nc4ccccc4[nH]3)c2)cc1C | 1.48 µM |
| Nc1ccc(CCN2CCN(c3cccc(C(F)(F)F)c3)CC2)cc1 | 1.42 µM |
| COc1ccc(-c2[nH]ncc2N=Nc2ccccc2)cc1 | 7.66 µM |
| CC(C)c1ccc2c(c1)c(SC(C)(C)C)c(CC(C)(C)C(=O)O)n2Cc1ccc(Cl)cc1 | 2 µM |
| COc1ccccc1-c1sc2ccccc2c1C#CC1(O)CCCCC1 | 10.8 µM |
| CC(C)(C)c1cc(Cl)ccc1OCCOCCN1CCCC1 | 6.54 µM |
| CCC1=NN(C(=O)c2ccc(Cl)cc2)C(O)(c2ccc(C)cc2)C1 (stereo unspecified) | 7.99 µM |
| O=C(CNC(=S)N(Cc1ccccc1)Cc1ccccc1F)NCCc1ccc(Cl)cc1 | 6.98 µM |
| Cc1ccc(C(=O)C(C(=O)/C=C/c2ccccc2)=C2SCCCS2)cc1 | 1.56 µM |
| Cn1c(=O)n(Cc2ccc(F)cc2)c(=O)c2c1nc1n2CCCN1C1CCCCC1 | 4.43 µM |
| CC(C)(C)c1ccc(O)c(O)c1 | 13.3 µM |

| SMILES | AC50 |
| --- | --- |
| Cc1nc2c(sc3nc(N4CCOCC4)c4c(c32)CC(C)(C)OC4)c(-c2ccccc2)c1C(=O)O | 1.98 µM |
| CC(=NCc1cccc(Cl)c1)c1nc(-c2ccco2)oc1O | 0.554 µM |
| Clc1ccc(C(c2ccccc2Cl)C(Cl)Cl)cc1 (stereo unspecified) | 6.32 µM |
| CCCCCCSc1nsc(NC(=O)CC(C)C)n1 | 9.2 µM |
| CSc1nnc(NC(=O)c2nc(S(=O)(=O)Cc3ccccc3F)ncc2Cl)s1 | 2.92 µM |
| C/C(N)=C(/C#N)C(=O)COC(=O)c1cc(-c2ccc(C)cc2)nc2ccccc12 | 15 µM |
| S=c1[nH]nc(C2CCCCC2)n1/N=C/C(Cl)=C\c1ccccc1 | 8.35 µM |
| Cc1cc(C)cc(NC(=O)Nc2ccc(-n3ccc(C(F)(F)F)n3)cc2)c1 | 4.95 µM |
| CN1CCN(c2ccc(S(=O)(=O)N3CCCCC3)cc2NC(=O)/C=C/c2ccc(Cl)c([N+](=O)[O-])c2)CC1 | 4.42 µM |
| CCCCCc1cc(=O)oc2c(C(CCN3CCCCC3)c3cc(OC)c(OC)c(OC)c3)c(OC)cc(OC)c12 (stereo unspecified) | 6.95 µM |
| O=[N+]([O-])c1nn(-c2ccc3c(c2)OCCO3)n(O)c1=NCCC1=CCCCC1 | 17.9 µM |
| COC(=O)Nc1nc2ccc(-c3n[nH]c(=O)c4ccccc34)cc2[nH]1 | 1.88 µM |
| Cc1cc(NC(=O)c2cc(-c3ccncc3)nc3ccccc23)ccc1Br | 6.77 µM |
| COc1ccc(S[C@@H](CCN2CC[C@H](NC(=O)OCc3ccccc3)CCC2=O)c2ccccc2)cc1 | 3.12 µM |
| C/C(NC(=O)c1cccc(F)c1)=C1/C(=O)C[C@@H]2[C@H]1C2(C)C | 2.13 µM |
| CN1CCc2c(sc(NC(=O)c3ccc(S(=O)(=O)N4CCc5ccccc54)cc3)c2C(N)=O)C1 | 5.01 µM |
| COc1ccc2nc(NC(=O)c3ccc([N+](=O)[O-])o3)sc2c1 | 3.77 µM |
| CCCSc1nsc(NC(=O)Nc2ccc(F)cc2F)n1 | 4.87 µM |
| Cc1cc(OCc2cc(C(=O)N3CCC(Oc4cccnc4)CC3)no2)cc(C)c1Cl | 8.31 µM |
| Cn1c2ccccc2c(=O)c2cc(C#Cc3ccccn3)ccc21 | > 19.5 µM (inactive) |
| CC(C)Cn1c(O)c(/C=C2\C=NN=C2c2ccccc2)sc1=S | 3.54 µM |
| CC(C)(C)c1cc(C=C(C#N)C#N)cc(C(C)(C)C)c1O | 3.08 µM |
| O=C(COc1cccc(C(F)(F)F)c1)N1CCN(c2ccc(O)cc2)CC1 | 4.98 µM |
| O=C(NNc1ccc(Cl)cc1)c1cccs1 | 1.58 µM |
